Experimental data: US20250136722A1, “CYTOTOXICITY TARGETING CHIMERAS” (GLAXOSMITHKLINE INTELLECTUAL PROPERTY DEVELOPMENT LIMITED, priority 2021, published 2025)

Assays:
CCR2+ expressing cells = experiment: Alternative dosing strategy of ARM compound to anti-cotinine antibody, blood concentration and CCR2+ cell depletion (Example 206); format: in vivo; details: co-dosing vs sequential dosing with anti-cotinine antibody, intravenously
Description: FIGS. 3A-3B: Alternative dosing strategy of small molecule ARM compound to anti-cotinine antibody, as described in Example 206, with anti-cotinine antibody and small molecule ARM compound (Example 1) co-dosed or sequentially dosed intravenously;
FIG. 5: Alternative dosing strategy of small molecule ARM compound to anti-cotinine antibody, as described in Example 206, with anti-cotinine antibody administered intravenously and ARM compound (Example 1) administered subcutaneously following a 2-hour delay from antibody dosing at various molar ratios of small molecule ARM: antibody; data shown is blood concentration of small molecule ARM compound at various timepoints following administration.

[1] = tested on: endogenous target monocytes in human PBMC; experiment: PBMC ex vivo monocyte depletion flow cytometry assay (Example 200); format: cell-based; details: with anti-cotinine antibody SEQ ID NO: 11/12, 18-24 hours, read-out: Ex Vivo Depletion Assay pEC50 (converted)
Experimental: A human PBMC (peripheral blood mononuclear cells) monocyte depletion flow cytometry assay was developed to screen compounds in a 384-well plate format. This assay incorporated endogenous natural killer cells to deplete endogenous target monocytes.
To screen compounds in the human PBMC monocyte depletion flow cytometry assay, 11-point dose-response curves were made from 1 mM stocks in neat DMSO by serially diluting an ARM compound of Formula (I) four-fold into a 384-well plate row-wise. These serially diluted compounds were then stamped into a flat bottom polypropylene 384-well plate (Greiner Bio-One) at 100 nL/well. Fifty microliters of 30 μg/mL anti-cotinine antibody having a heavy chain sequence of SEQ ID NO: 11 and a light chain sequence of SEQ ID NO: 12 (rabbit variable region with human IgG1 Fc domain containing a DE mutation (S239D/1332E)) that had been diluted in assay medium (RPMI 1640 (Gibco) containing 10% fetal bovine serum (Gibco), 1% Glutamax (Gibco) and 1% sodium pyruvate (Corning) was added to the wells of the plate. The plate was centrifuged for 1 min at 500 rpm (revolutions per minute) and then shaken for 5 min at room temperature. The plate was incubated for 15 minutes at 37° C./5% CO2.
Frozen PBMC cells (HemaCare BioResearch) were thawed and centrifuged at 1,200 rpm for 4 minutes. The cells were diluted to a cell density of 2×10^6 cells/mL in assay medium. Fifty microliters of the diluted cells were added to the wells of the plate. The plate was centrifuged for 1 min at 500 rpm and incubated for 18-24 hours at 37° C./5% CO2.
After 18-24 hours incubation, 2 μL of 6.25 μg human FC block (BD Pharmingen) that was diluted in assay medium was added to the wells of the plate. The plate was centrifuged for 1 minute at 500 rpm and then incubated at room temperature for 15 minutes. Five microliters of 750 nM Helix NP NIR (Biolegend) that had been diluted in assay medium was added to the wells of the plate. Nine microliters of antibody cocktail containing 1/5 diluted fluorescein isothiocyanate (FITC) labeled anti-CD45 antibody (Beckman Coulter), PC7 labeled anti-CD14 antibody (Beckman Coulter) and phycoerythrin (PE) anti-CD4 antibody (Beckman Coulter) was then added to the wells of the plate. The plate was centrifuged for 1 min at 500 rpm and incubated for 30 minutes at 4-8° C. Samples from the plate were run on BD FACS Canto II flow cytometer and data was analyzed using FlowJo software.
ARMs compounds of Formula (I) of the invention were tested for the ability to deplete monocytes in the above assay in one or more experimental runs and the results are shown in Table 3 below. Potency of the compounds of the invention is reported as a pEC50 value. The pEC50 value is the negative log of the EC50 value, wherein the EC50 value is the half maximal effective concentration measured in molar (M). For compounds tested in more than one experimental run, the pEC50 value is reported as an average or as the individual values measured

CC(C)N(C)[C@@H]1CC[C@H](N2CC[C@H](Nc3ncnc4ccc(C(F)(F)F)cc34)C2=O)[C@H](NC(=O)[C@H]2CC[C@H](NC(=O)CCCO[C@H]3CC[C@H](OCCNC(=O)[C@H]4CC(=O)N(C)[C@@H]4c4cccnc4)CC3)CC2)C1 [Example 1, (2S,3S)-N-(2-(((1R,4S)-4-(4-(((1R,4R)-4-(((1R,2S,5R)-5-(Isopropyl(methyl)amino)-2-((S)-2-oxo-3-((6-(trifluoromethyl)quinazolin-4-yl)amino)pyrrolidin-1-yl)cyclohexyl)carbamoyl)cyclohexyl)amino)-4-oxobutoxy)cyclohexyl)oxy)ethyl)-1-methyl-5-oxo-2-(pyridin-3-yl)pyrrolidine-3-carboxamide]
PD (percent depletion of CCR2+ expressing cells) (CCR2+ expressing cells): unchanged
PK (blood concentration of small molecule ARM compound) (CCR2+ expressing cells): unchanged

CN1C(=O)C[C@H](C(=O)NCCOCCOCCOCCOCCOCCC(=O)N[C@@H]2C[C@H](NC(C)(C)C)CC[C@@H]2N2CC[C@H](Nc3ncnc4ccc(C(F)(F)F)cc34)C2=O)[C@H]1c1cccnc1 [Example 37]
EC50 [1]: 5.01 nM

CN1C(=O)C[C@H](C(=O)NCCOCCOCCOCCOCCOCCOCCC(=O)N[C@@H]2C[C@H](NC(C)(C)C)CC[C@@H]2N2CC[C@H](Nc3ncnc4ccc(C(F)(F)F)cc34)C2=O)[C@H]1c1cccnc1 [Example 38]
EC50 [1]: 1.58 nM
